Measured values taken from ChEMBL document CHEMBL1124696, “Nucleoside peptides. 10. Synthesis and T-cell immunostimulatory properties of certain peptide derivatives of 6-azacadeguomycin” (1989).

Key:
Format in all cases: functional
Homo sapiens [1] = organism: Homo sapiens; assay: Mitogen-induced human lymphocyte proliferation measured by incorporation of [3H]thymidine in lymphocytes with Concanavalin A (Con A) at a concentration of 0.5 ug with out compound
Homo sapiens [2] = organism: Homo sapiens; assay: Mitogen-induced human lymphocyte proliferation measured by incorporation of [3H]thymidine in lymphocytes with Phytohemagglutininin at a concentration of 0.25 ug with compound at 400 uM
Homo sapiens [3] = organism: Homo sapiens; assay: Mitogen-induced human lymphocyte proliferation measured by incorporation of [3H]thymidine in lymphocytes with Phytohemagglutininin at a concentration of 0.25 ug with out compound
Homo sapiens [4] = organism: Homo sapiens; assay: Mitogen-induced human lymphocyte proliferation measured by incorporation of [3H]thymidine in lymphocytes with Phytohemagglutininin at a concentration of 1 ug with out compound
Homo sapiens [5] = organism: Homo sapiens; assay: Mitogen-induced human lymphocyte proliferation measured by incorporation of [3H]-thymidine in lymphocytes with Concanavalin A (Con A) at a concentration of 0.5 ug with compound at 1 uM
Homo sapiens [6] = organism: Homo sapiens; assay: Mitogen-induced human lymphocyte proliferation measured by incorporation of [3H]thymidine in lymphocytes with Pokeweed mitogen at a concentration of 1/1250 ug with compound at 50 uM
Homo sapiens [7] = organism: Homo sapiens; assay: Mitogen-induced human lymphocyte proliferation measured by incorporation of [3H]thymidine in lymphocytes with Phytohemagglutininin at a concentration of 1 ug with compound at 0.1 uM
Homo sapiens [8] = organism: Homo sapiens; assay: Mitogen-induced human lymphocyte proliferation measured by incorporation of [3H]thymidine in lymphocytes with Pokeweed mitogen at a concentration of 1/1250 ug with compound at 10 uM
Homo sapiens [9] = organism: Homo sapiens; assay: Mitogen-induced human lymphocyte proliferation measured by incorporation of [3H]-thymidine in lymphocytes with Phytohemagglutininin at a concentration of 1 ug with compound at 10 uM
Homo sapiens [10] = organism: Homo sapiens; assay: Mitogen-induced human lymphocyte proliferation measured by incorporation of [3H]thymidine in lymphocytes with Phytohemagglutininin at a concentration of 1 ug with compound at 400 uM
Homo sapiens [11] = organism: Homo sapiens; assay: Mitogen-induced human lymphocyte proliferation measured by incorporation of [3H]thymidine in lymphocytes with Phytohemagglutininin at a concentration of 0.25 ug with compound at 1 uM
Homo sapiens [12] = organism: Homo sapiens; assay: Mitogen-induced human lymphocyte proliferation measured by incorporation of [3H]thymidine in lymphocytes with Concanavalin A (Con A) at a concentration of 0.5 ug with compound at 10 uM
Homo sapiens [13] = organism: Homo sapiens; assay: Mitogen-induced human lymphocyte proliferation measured by incorporation of [3H]thymidine in lymphocytes with Pokeweed mitogen at a concentration of 1/1250 ug with out compound
Homo sapiens [14] = organism: Homo sapiens; assay: Mitogen-induced human lymphocyte proliferation measured by incorporation of [3H]thymidine in lymphocytes with Concanavalin A (Con A) at a concentration of 0.5 ug with compound at 50 uM
Homo sapiens [15] = organism: Homo sapiens; assay: Mitogen-induced human lymphocyte proliferation measured by incorporation of [3H]thymidine in lymphocytes with Phytohemagglutininin at a concentration of 1 ug with compound at 1 uM
Homo sapiens [16] = organism: Homo sapiens; assay: Mitogen-induced human lymphocyte proliferation measured by incorporation of [3H]thymidine in lymphocytes with Pokeweed mitogen at a concentration of 1/1250 ug with compound at 0.1 uM
Homo sapiens [17] = organism: Homo sapiens; assay: Mitogen-induced human lymphocyte proliferation measured by incorporation of [3H]thymidine in lymphocytes with Pokeweed mitogen at a concentration of 1/1250 ug with compound at 400 uM
Homo sapiens [18] = organism: Homo sapiens; assay: Mitogen-induced human lymphocyte proliferation measured by incorporation of [3H]thymidine in lymphocytes with Pokeweed mitogen at a concentration of 1/1250 ug with compound at 1 uM
Homo sapiens [19] = organism: Homo sapiens; assay: Mitogen-induced human lymphocyte proliferation measured by incorporation of [3H]thymidine in lymphocytes with Concanavalin A at a concentration of 0.5 ug with compound at 400 uM
Homo sapiens [20] = organism: Homo sapiens; assay: Mitogen-induced human lymphocyte proliferation measured by incorporation of [3H]-thymidine in lymphocytes with Phytohemagglutininin at a concentration of 0.25 ug with compound at 0.1 uM
Homo sapiens [21] = organism: Homo sapiens; assay: Mitogen-induced human lymphocyte proliferation measured by incorporation of [3H]thymidine in lymphocytes with Concanavalin A (Con A) at a concentration of 0.5 ug with compound at 0.1 uM
Homo sapiens [22] = organism: Homo sapiens; assay: Mitogen-induced human lymphocyte proliferation measured by incorporation of [3H]thymidine in lymphocytes with Phytohemagglutininin at a concentration of 0.25 ug with compound at 10 uM
Homo sapiens [23] = organism: Homo sapiens; assay: Mitogen-induced human lymphocyte proliferation measured by incorporation of [3H]thymidine in lymphocytes with Phytohemagglutininin at a concentration of 1 ug with compound at 50 uM
Homo sapiens [24] = organism: Homo sapiens; assay: Mitogen-induced human lymphocyte proliferation measured by incorporation of [3H]thymidine in lymphocytes with Phytohemagglutininin at a concentration of 0.25 ug with compound at 50 uM
Homo sapiens [25] = organism: Homo sapiens; assay: Mitogen-induced human lymphocyte proliferation measured by incorporation of [3H]-thymidine in lymphocytes with Pokeweed mitogen at a concentration of 1/1250 microg with out compound
Homo sapiens [26] = organism: Homo sapiens; assay: Mitogen-induced human lymphocyte proliferation measured by incorporation of [3H]thymidine in lymphocytes with Pokeweed mitogen at a concentration of 1/1250 microg with compound at 10 uM
Homo sapiens [27] = organism: Homo sapiens; assay: Mitogen-induced human lymphocyte proliferation measured by incorporation of [3H]thymidine in lymphocytes with Phytohemagglutininin at a concentration of 1 ug with compound at 10 uM
Homo sapiens [28] = organism: Homo sapiens; assay: Mitogen-induced human lymphocyte proliferation measured by incorporation of [3H]thymidine in lymphocytes with Concanavalin A at a concentration of 0.25 microg with compound at 400 uM
Homo sapiens [29] = organism: Homo sapiens; assay: Mitogen-induced human lymphocyte proliferation measured by incorporation of [3H]thymidine in lymphocytes with Concanavalin A (Con A) at a concentration of 0.25 microg with out compound
Homo sapiens [30] = organism: Homo sapiens; assay: Mitogen-induced human lymphocyte proliferation measured by incorporation of [3H]thymidine in lymphocytes with Phytohemagglutininin at a concentration of 0.125 microg with compound at 1 uM
Homo sapiens [31] = organism: Homo sapiens; assay: Mitogen-induced human lymphocyte proliferation measured by incorporation of [3H]thymidine in lymphocytes with Pokeweed mitogen at a concentration of 1/1250 microg with compound at 50 uM
Homo sapiens [32] = organism: Homo sapiens; assay: Mitogen-induced human lymphocyte proliferation measured by incorporation of [3H]thymidine in lymphocytes with Pokeweed mitogen at a concentration of 1/1250 microg with compound at 400 uM
Homo sapiens [33] = organism: Homo sapiens; assay: Mitogen-induced human lymphocyte proliferation measured by incorporation of [3H]thymidine in lymphocytes with Phytohemagglutininin at a concentration of 0.125 microg with compound at 0.1 uM
Homo sapiens [34] = organism: Homo sapiens; assay: Mitogen-induced human lymphocyte proliferation measured by incorporation of [3H]thymidine in lymphocytes with Phytohemagglutininin at a concentration of 0.125 microg with compound at 10 uM
Homo sapiens [35] = organism: Homo sapiens; assay: Mitogen-induced human lymphocyte proliferation measured by incorporation of [3H]thymidine in lymphocytes with Pokeweed mitogen at a concentration of 1/5000 microg with compound at 0.1 uM
Homo sapiens [36] = organism: Homo sapiens; assay: Mitogen-induced human lymphocyte proliferation measured by incorporation of [3H]thymidine in lymphocytes with Pokeweed mitogen at a concentration of 1/1250 microg with compound at 1 uM
Homo sapiens [37] = organism: Homo sapiens; assay: Mitogen-induced human lymphocyte proliferation measured by incorporation of [3H]thymidine in lymphocytes with Pokeweed mitogen at a concentration of 1/5000 microg with compound at 50 uM
Homo sapiens [38] = organism: Homo sapiens; assay: Mitogen-induced human lymphocyte proliferation measured by incorporation of [3H]thymidine in lymphocytes with Pokeweed mitogen at a concentration of 1/5000 microg with compound at 1 uM
Homo sapiens [39] = organism: Homo sapiens; assay: Mitogen-induced human lymphocyte proliferation measured by incorporation of [3H]thymidine in lymphocytes with Concanavalin A (Con A) at a concentration of 0.25 microg with compound at 0.1 uM
Homo sapiens [40] = organism: Homo sapiens; assay: Mitogen-induced human lymphocyte proliferation measured by incorporation of [3H]thymidine in lymphocytes with Concanavalin A (Con A) at a concentration of 0.25 microg with compound at 1 uM
Homo sapiens [41] = organism: Homo sapiens; assay: Mitogen-induced human lymphocyte proliferation measured by incorporation of [3H]thymidine in lymphocytes with Phytohemagglutininin at a concentration of 0.125 microg with compound at 400 uM
Homo sapiens [42] = organism: Homo sapiens; assay: Mitogen-induced human lymphocyte proliferation measured by incorporation of [3H]thymidine in lymphocytes with Concanavalin A (Con A) at a concentration of 0.25 microg with compound at 50 uM
Homo sapiens [43] = organism: Homo sapiens; assay: Mitogen-induced human lymphocyte proliferation measured by incorporation of [3H]thymidine in lymphocytes with Pokeweed mitogen at a concentration of 1/1250 microg with compound at 0.1 uM
Homo sapiens [44] = organism: Homo sapiens; assay: Mitogen-induced human lymphocyte proliferation measured by incorporation of [3H]thymidine in lymphocytes with Pokeweed mitogen at a concentration of 1/5000 microg with compound at 10 uM
Homo sapiens [45] = organism: Homo sapiens; assay: Mitogen-induced human lymphocyte proliferation measured by incorporation of [3H]thymidine in lymphocytes with Pokeweed mitogen at a concentration of 1/5000 microg with compound at 400 uM
Homo sapiens [46] = organism: Homo sapiens; assay: Mitogen-induced human lymphocyte proliferation measured by incorporation of [3H]thymidine in lymphocytes with Pokeweed mitogen at a concentration of 1/5000 microg with out compound
Homo sapiens [47] = organism: Homo sapiens; assay: Mitogen-induced human lymphocyte proliferation measured by incorporation of [3H]thymidine in lymphocytes with Phytohemagglutininin at a concentration of 0.125 microg with compound at 50 uM
Homo sapiens [48] = organism: Homo sapiens; assay: Mitogen-induced human lymphocyte proliferation measured by incorporation of [3H]thymidine in lymphocytes with Concanavalin A (Con A) at a concentration of 0.25 microg with compound at 10 uM
Homo sapiens [49] = organism: Homo sapiens; assay: Mitogen-induced human lymphocyte proliferation measured by incorporation of [3H]thymidine in lymphocytes with Phytohemagglutininin at a concentration of 0.125 microg with out compound

Nc1nc2c(c(C(=O)N[C@@H](CCC(=O)O)C(=O)O)nn2C2O[C@H](CO)[C@@H](O)[C@H]2O)c(=O)[nH]1 (some centres undefined)
Incorporation (Homo sapiens [1]): 26393 | Incorporation (Homo sapiens [2]): 13781 | Incorporation (Homo sapiens [3]): 6506 | Incorporation (Homo sapiens [4]): 56641 | Incorporation (Homo sapiens [5]): 49196 | Incorporation (Homo sapiens [6]): 53140 | Incorporation (Homo sapiens [7]): 49176 | Incorporation (Homo sapiens [8]): 49105 | Incorporation (Homo sapiens [9]): 50830 | Incorporation (Homo sapiens [10]): 44427 | Incorporation (Homo sapiens [11]): 12995 | Incorporation (Homo sapiens [12]): 47573 | Incorporation (Homo sapiens [13]): 40443 | Incorporation (Homo sapiens [14]): 41114 | Incorporation (Homo sapiens [15]): 50330 | Incorporation (Homo sapiens [16]): 51918 | Incorporation (Homo sapiens [17]): 49556 | Incorporation (Homo sapiens [18]): 56187 | Incorporation (Homo sapiens [19]): 45681 | Incorporation (Homo sapiens [20]): 8002 | Incorporation (Homo sapiens [21]): 43786 | Incorporation (Homo sapiens [22]): 16224 | Incorporation (Homo sapiens [23]): 50246 | Incorporation (Homo sapiens [24]): 14187

Nc1nc(O)c2c(C(=O)O)cn(C3O[C@H](CO)[C@@H](O)[C@H]3O)c2n1 (some centres undefined)
Incorporation (Homo sapiens [25]): 52418 | Incorporation (Homo sapiens [26]): 54392 | Incorporation (Homo sapiens [4]): 40349 | Incorporation (Homo sapiens [27]): 42486 | Incorporation (Homo sapiens [28]): 9782 | Incorporation (Homo sapiens [29]): 42670 | Incorporation (Homo sapiens [7]): 38824 | Incorporation (Homo sapiens [30]): 14865 | Incorporation (Homo sapiens [31]): 50597 | Incorporation (Homo sapiens [10]): 55547 | Incorporation (Homo sapiens [32]): 14118 | Incorporation (Homo sapiens [33]): 13682 | Incorporation (Homo sapiens [34]): 17242 | Incorporation (Homo sapiens [35]): 47896 | Incorporation (Homo sapiens [36]): 53594 | Incorporation (Homo sapiens [15]): 45537 | Incorporation (Homo sapiens [37]): 42735 | Incorporation (Homo sapiens [38]): 44790 | Incorporation (Homo sapiens [39]): 45121 | Incorporation (Homo sapiens [40]): 43757 | Incorporation (Homo sapiens [41]): 1268 | Incorporation (Homo sapiens [42]): 12990 | Incorporation (Homo sapiens [43]): 51152 | Incorporation (Homo sapiens [44]): 43600 | Incorporation (Homo sapiens [45]): 10034 | Incorporation (Homo sapiens [23]): 36835 | Incorporation (Homo sapiens [46]): 40053 | Incorporation (Homo sapiens [47]): 15707 | Incorporation (Homo sapiens [48]): 42403 | Incorporation (Homo sapiens [49]): 15708
